Tested on: amyloid-beta (1-42) peptide
Assay: ELISA assay of amyloid-beta (1-42) in conditioned media of 2B7 cells
Assay type: cell-based
Details: for inhibition at 10 µM: Aβ-42, 10 umol/L; for inhibition at 10 µM / inhibition at 100 µM / inhibition at 20 µM: read-out: % Inhibition (range)
Protocol: Compounds of the present invention, and extracts comprising said compounds, may be assayed as inhibitors of amyloid-beta (1-42) peptide in vitro or in vivo. Such assay methods are described in detail in U.S. Pat. No. 6,649,196, the entirety of which is hereby incorporated herein by reference.
In certain embodiments, provided compounds of the present invention, and extracts comprising said compounds, were assayed as inhibitors of amyloid-beta (1-42) peptide in vitro using an ELISA assay.
Capture Plate Prep: • 6E10 was diluted to 5.0 ug/mL in 100 mM NaHCO3 pH 8.2 (10 ug aliquot per 2 mL buffer); • 100 uL capture antibody solution was added to wells of 96 well plate; • Incubated overnight at 4° C. sealed; • Aspirated off capture antibody; and • Blocked with 250 uL of Blocking Buffer for 2-4 hours at rt sealed.
Conditioned Media: • Cultured 2B7 cells in 96 well plate with 250 uL of media per well until confluent; • Prepared serial dilution of compounds in DMSO at 100× the final desired concentration; • Washed wells with 2B7 cells lx with 250 uL of media; • Diluted DMSO stocks 1:100 into media and mix; and • Added 250 μL of media containing compounds (1% DMSO) to wells with 2B7 cells for 5 hours at 37° C.
Elisa Sample Prep: • Diluted conditioned media 1:2 into blocking buffer; • NOTE: If assaying for A-Beta 1-40 or total A-Beta, then diluted above sample 1:10 with a 50/50 mixture of non-conditioned media containing 1% DMSO and blocking buffer.
Standard Curve Sample Prep: • Diluted appropriate A-Beta peptide stock (stored in 1% NH4OH) to 200 μg/mL in blocking buffer; • Prepared a 1:2 serial dilution from the 200 μg/mL sample (150 μL into 150 μL blocking buffer); and • Added equal volume of standard curve samples to non-conditioned media with 1% DMSO.
Overnight Sample Incubation: • Aspirated blocking buffer from blocked plate; • Added 100 μL of samples to wells of plate (samples will be 50% media with 1% DMSO and 50% blocking buffer; and • Incubated overnight at 4° C. sealed.
Addition of Detection Antibody: • Aspirated off samples, wash 2× with 250 μL blocking buffer; and • Added 100 μL detection antibody labeled with HRP at 0.25 ug/mL in blocking buffer for 4 hours at room temperature sealed.
Final Wash and Readout: • Aspirated wells, wash 5× with 250 μL of PBS-T (2 minutes each wash at 30 RPM); • Added 100 μL TMB for 20 minutes; • Added 100 μL of 1M H3PO4; and • Read at 450 nm.
Coating Buffer (100 mM NaHCO3 pH 8.2)
PBS-T (PBS with 0.05% Tween-20)
Blocking Buffer (1% BSA in PBS-T)

SMILES	% Inhibition (range) (Aβ-42, 20 umol/L)	% Inhibition (range) (Aβ-42, 100 umol/L)	further results
CC(=O)O[C@@H]([C@H]1C[C@@H](C)C2=C(O1)C(=O)[C@@]1(C)[C@@H]3CC[C@H]4C(C)(C)C(=O)CC[C@@]45C[C@@]35CC[C@]21C)C(C)(C)O			inhibition at 10 µM: < 25%
CC(=O)O[C@H]1CC[C@]23C[C@]24CC[C@]2(C)C5C(C[C@@]2(C)C4CCC3C1(C)C)OC(C(F)(F)F)=C[C@H]5C (stereo partly drawn)			inhibition at 10 µM: < 25%
CC1COC2C[C@H]3[C@@H]4CCC5C[C@@H](O)CC[C@]5(C)[C@H]4CC[C@]3(C)C2[C@@H]1C (stereo partly drawn)			inhibition at 10 µM: < 25%
C[C@@H]1C=C(C(F)(F)F)OC2C[C@@]3(C)C4CCC5C(C)(C)[C@@H](O)CC[C@@]56C[C@@]46CC[C@]3(C)C21 (stereo partly drawn)			inhibition at 10 µM: 25 to 75%
CCC(=O)O[C@@H]([C@H]1C[C@@H](C)C2C(O1)C(N)[C@@]1(C)[C@@H]3CC[C@H]4C(C)(C)[C@@H](O)CC[C@@]45C[C@@]35CC[C@]21C)C(C)(C)O (stereo partly drawn)			inhibition at 100 µM (Aβ-42, 100 umol/L): 25 to 75%
CC(=O)O[C@@H]([C@H]1C[C@@H](C)C2=C(O1)[C@H](O[Si](C)(C)C(C)(C)C)[C@@]1(C)[C@@H]3CC[C@H]4C(C)(C)[C@H](N)CC[C@@]45C[C@@]35CC[C@]21C)C(C)(C)O			inhibition at 100 µM (Aβ-42, 100 umol/L): < 25%
C[C@@H]1C[C@H](C=O)OC2C1[C@@]1(C)CC[C@@]34C[C@@]35CC[C@H](O)C(C)(C)[C@@H]5CC[C@H]4[C@]1(C)[C@H]2O (stereo partly drawn)			inhibition at 100 µM (Aβ-42, 100 umol/L): < 25%
C[C@@H]1C[C@H](CO)OC2C1[C@@]1(C)CC[C@@]34C[C@@]35CC[C@H](O)C(C)(C)[C@@H]5CC[C@H]4[C@]1(C)[C@H]2O (stereo partly drawn)			inhibition at 100 µM (Aβ-42, 100 umol/L): < 25%
C[C@@H]1C[C@H](C(=O)C(C)(C)O)OC2C1[C@@]1(C)CC[C@@]34C[C@@]35CC[C@H](O)C(C)(C)[C@@H]5CC[C@H]4[C@]1(C)[C@H]2O (stereo partly drawn)			inhibition at 20 µM (Aβ-42, 20 umol/L): < 25%
C[C@@H]1C[C@H]([C@H](OC(N)=O)C(C)(C)O)OC2C1[C@@]1(C)CC[C@@]34C[C@@]35CC[C@H](O)C(C)(C)[C@@H]5CC[C@H]4[C@]1(C)[C@H]2O (stereo partly drawn)			inhibition at 20 µM (Aβ-42, 20 umol/L): 25 to 75%
CC(=O)/C=C/[C@H]1C[C@@H](C)C2C(O1)[C@H](O)[C@@]1(C)[C@@H]3CC[C@H]4C(C)(C)[C@@H](O)CC[C@@]45C[C@@]35CC[C@]21C (stereo partly drawn)			inhibition at 20 µM (Aβ-42, 20 umol/L): < 25%
CC(=O)CCC1C[C@@H](C)C2C(O1)[C@H](O)[C@@]1(C)[C@@H]3CC[C@H]4C(C)(C)[C@@H](O)CC[C@@]45C[C@@]35CC[C@]21C (stereo partly drawn)			inhibition at 20 µM (Aβ-42, 20 umol/L): < 25%
CC(=O)O[C@@H]([C@H]1C[C@@H](C)C2C(O1)[C@H](O)[C@@]1(C)[C@@H]3CC[C@H]4C(C)(C)C(=O)CC[C@@]45C[C@@]35CC[C@]21C)C(C)(C)O (stereo partly drawn)			inhibition at 100 µM (Aβ-42, 100 umol/L): 25 to 75%
CC(=O)O[C@@H]([C@H]1C[C@@H](C)C2C(O1)[C@H](O)[C@@]1(C)[C@@H]3CC[C@H]4C(C)(C)[C@H](N)CC[C@@]45C[C@@]35CC[C@]21C)C(C)(C)O (stereo partly drawn)			inhibition at 100 µM (Aβ-42, 100 umol/L): 25 to 75%
CC(=O)O[C@@H]([C@H]1C[C@@H](C)C2C(O1)[C@H](O)[C@@]1(C)[C@@H]3CC[C@H]4C(C)(C)[C@H](N5CCOCC5)CC[C@@]45C[C@@]35CC[C@]21C)C(C)(C)O (stereo partly drawn)			inhibition at 100 µM (Aβ-42, 100 umol/L): < 25%
CC(=O)O[C@@H]([C@H]1C[C@@H](C)C2C(O1)[C@H](OC(N)=O)[C@@]1(C)[C@@H]3CC[C@H]4C(C)(C)[C@@H](OC(N)=O)CC[C@@]45C[C@@]35CC[C@]21C)C(C)(C)O (stereo partly drawn)			inhibition at 20 µM (Aβ-42, 20 umol/L): < 25%
CC1CC(C(O)C(C)(C)O)OC2C1C1(C)CCC34CC35CCC(OC3CN(C(=O)c6cc(F)cc(F)c6)CCO3)C(C)(C)C5CCC4C1(C)C2O (stereo not drawn)	E E (% inhibition of 25-75%)	E E (% inhibition of 25-75%)	
CC1CC(C(O)C(C)(C)O)OC2C1C1(C)CCC34CC35CCC(OC3CN(CCCC(=O)O)CCO3)C(C)(C)C5CCC4C1(C)C2O (stereo not drawn)	E E (% inhibition of 25-75%)	E E (% inhibition of 25-75%)	IC50 (Aβ-42, 2B7 cells, 5 hours, read-out: IC50 range): > 10 µM

SMILES	% Inhibition (range) (Aβ-42, 20 umol/L)	% Inhibition (range) (Aβ-42, 100 umol/L)	further results
CC1CC(C(O)C(C)(C)O)OC2C1C1(C)CCC34CC35CCC(OC3CN(CCC(=O)O)CCO3)C(C)(C)C5CCC4C1(C)C2O (stereo not drawn)	E E (% inhibition of 25-75%)	E E (% inhibition of 25-75%)	
CC1CC(C(O)C(C)(C)O)OC2C1C1(C)CCC34CC35CCC(OC3CN(C(=O)C6CCOCC6)CCO3)C(C)(C)C5CCC4C1(C)C2O (stereo not drawn)	E (% inhibition of 25-75%)		
CC1CC(C(O)C(C)(C)O)OC2C1C1(C)CCC34CC35CCC(OC3CN(C(=O)Cc6cccnc6)CCO3)C(C)(C)C5CCC4C1(C)C2O (stereo not drawn)		F (% inhibition of <25%)	
CC1CC(C(O)C(C)(C)O)OC2C1C1(C)CCC34CC35CCC(OC3CN(C(=O)Cc6ccccn6)CCO3)C(C)(C)C5CCC4C1(C)C2O (stereo not drawn)		F (% inhibition of <25%)	
CC1CC(C(O)C(C)(C)O)OC2C1C1(C)CCC34CC35CCC(OC3CN(C(=O)Cc6ccncc6)CCO3)C(C)(C)C5CCC4C1(C)C2O (stereo not drawn)		F (% inhibition of <25%)	
CC1CC(C(O)C(C)(C)O)OC2C1C1(C)CCC34CC35CCC(OC3CN(C(=O)c6cccnc6)CCO3)C(C)(C)C5CCC4C1(C)C2O (stereo not drawn)		F (% inhibition of <25%)	
CC1CC(C(O)C(C)(C)O)OC2C1C1(C)CCC34CC35CCC(OC3CN(C(=O)c6ccncc6)CCO3)C(C)(C)C5CCC4C1(C)C2O (stereo not drawn)	E E (% inhibition of 25-75%)	E E (% inhibition of 25-75%)	
CC1CC(C(O)C(C)(C)O)OC2C1C1(C)CCC34CC35CCC(OC3CN(C(=O)CN6CCOCC6)CCO3)C(C)(C)C5CCC4C1(C)C2O (stereo not drawn)		F (% inhibition of <25%)	
CC1CC(C(O)C(C)(C)O)OC2C1C1(C)CCC34CC35CCC(OC3CN(C(=O)CC6CCOCC6)CCO3)C(C)(C)C5CCC4C1(C)C2O (stereo not drawn)	F (% inhibition of <25%)		
CC1CC(C(O)C(C)(C)O)OC2C1C1(C)CCC34CC35CCC(OC3CN(C(=O)Cc6ccc(F)cc6)CCO3)C(C)(C)C5CCC4C1(C)C2O (stereo not drawn)	E E (% inhibition of 25-75%)	E E (% inhibition of 25-75%)	
CC1CC(C(O)C(C)(C)O)OC2C1C1(C)CCC34CC35CCC(OC3CN(C(=O)C6CCCCC6)CCO3)C(C)(C)C5CCC4C1(C)C2O (stereo not drawn)	E (% inhibition of 25-75%)		
CC1CC(C(O)C(C)(C)O)OC2C1C1(C)CCC34CC35CCC(OC3CN(C(=O)C6CC6)CCO3)C(C)(C)C5CCC4C1(C)C2O (stereo not drawn)	E (% inhibition of 25-75%)		
CC1CC(C(O)C(C)(C)O)OC2C1C1(C)CCC34CC35CCC(OC3CN(C(=O)Cc6cc(F)cc(F)c6)CCO3)C(C)(C)C5CCC4C1(C)C2O (stereo not drawn)	E E (% inhibition of 25-75%)	E E (% inhibition of 25-75%)	
CC1CC(C(O)C(C)(C)O)OC2C1C1(C)CCC34CC35CCC(OC3CN(C(=O)CC6CCC6)CCO3)C(C)(C)C5CCC4C1(C)C2O (stereo not drawn)	E (% inhibition of 25-75%)	F (% inhibition of <25%)	
CC1CC(C(O)C(C)(C)O)OC2C1C1(C)CCC34CC35CCC(OC3CN(C6CCOCC6)CCO3)C(C)(C)C5CCC4C1(C)C2O (stereo not drawn)	E (% inhibition of 25-75%)		
CC(=O)N1CC(N2CCOC(OC3CCC45CC46CCC4(C)C7C(C)CC(C(O)C(C)(C)O)OC7C(O)C4(C)C6CCC5C3(C)C)C2)C1 (stereo not drawn)	F F (% inhibition of <25%)	F F (% inhibition of <25%)	
CC1CC(C(O)C(C)(C)O)OC2C1C1(C)CCC34CC35CCC(OC3CN(C6CC6)CCO3)C(C)(C)C5CCC4C1(C)C2O (stereo not drawn)		F (% inhibition of <25%)	
CC1CC(C(O)C(C)(C)O)OC2C1C1(C)CCC34CC35CCC(OC3CN(CCF)CCO3)C(C)(C)C5CCC4C1(C)C2O (stereo not drawn)		F (% inhibition of <25%)	
